From publication PMC7180948, “New Insights into 4-Anilinoquinazolines as Inhibitors of Cardiac Troponin I–Interacting Kinase (TNNi3K)” (Molecules, 2020)

Experiments:
Test in all cases: biochemical
Set-up in all cases: KINOMEscan competition binding panel (Eurofins DiscoverX), single concentration, % inhibition
Settings in all cases: read-out: 7 at 1 µM % inhibition
CTK = biological target: T1, CTK (Homo sapiens, UniProt P42679)
T1 construct: gene MATK
Method in brief: (§1)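 Values come from single-concentration (1 µM) profiling in the Eurofins DiscoverX KINOMEscan competition-binding platform, which covers over 400 kinases.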

PLK2 = PLK2 (Homo sapiens, UniProt Q9NYY3)
Method in brief: as §1

MKNK1 = MKNK1 (Homo sapiens, UniProt Q9BUB5)
Method in brief: as §1

TESK1 = TESK1 (Homo sapiens, UniProt Q15569)
TESK1, sequence (Q15569 whole entry): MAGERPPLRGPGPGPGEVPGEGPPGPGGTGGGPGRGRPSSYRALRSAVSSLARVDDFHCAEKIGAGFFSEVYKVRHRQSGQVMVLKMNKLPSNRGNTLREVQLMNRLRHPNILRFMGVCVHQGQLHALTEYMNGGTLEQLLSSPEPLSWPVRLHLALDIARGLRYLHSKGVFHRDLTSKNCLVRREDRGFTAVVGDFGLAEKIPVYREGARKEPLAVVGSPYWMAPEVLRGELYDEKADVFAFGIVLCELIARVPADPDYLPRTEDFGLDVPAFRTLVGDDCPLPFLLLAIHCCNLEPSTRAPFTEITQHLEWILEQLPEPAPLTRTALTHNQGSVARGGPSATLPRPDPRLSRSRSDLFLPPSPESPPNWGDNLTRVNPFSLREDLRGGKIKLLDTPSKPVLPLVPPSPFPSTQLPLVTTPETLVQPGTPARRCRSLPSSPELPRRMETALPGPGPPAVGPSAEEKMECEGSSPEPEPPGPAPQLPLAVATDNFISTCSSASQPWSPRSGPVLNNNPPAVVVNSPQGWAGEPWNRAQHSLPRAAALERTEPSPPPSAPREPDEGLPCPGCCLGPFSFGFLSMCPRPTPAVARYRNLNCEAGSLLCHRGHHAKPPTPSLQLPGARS
Method in brief: as §1

SIK2 = SIK2 (Homo sapiens, UniProt Q9H0K1)
Method in brief: as §1

NEK5 = NEK5 (Homo sapiens, UniProt Q6P3R8)
Method in brief: as §1

PHKG1 = PHKG1 (Homo sapiens, UniProt Q16816)
PHKG1, sequence (Q16816 whole entry): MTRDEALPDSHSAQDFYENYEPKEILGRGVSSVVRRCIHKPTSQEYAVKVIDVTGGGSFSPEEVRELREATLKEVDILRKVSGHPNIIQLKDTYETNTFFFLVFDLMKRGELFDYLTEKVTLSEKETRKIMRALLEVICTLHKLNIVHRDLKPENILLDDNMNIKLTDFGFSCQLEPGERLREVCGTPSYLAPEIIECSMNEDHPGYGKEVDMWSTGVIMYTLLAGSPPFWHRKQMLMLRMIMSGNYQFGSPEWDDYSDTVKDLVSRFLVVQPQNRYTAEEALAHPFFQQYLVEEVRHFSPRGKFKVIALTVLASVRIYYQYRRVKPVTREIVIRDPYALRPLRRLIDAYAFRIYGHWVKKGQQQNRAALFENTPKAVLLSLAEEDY
Method in brief: as §1

EGFR(G719S) = EGFR(G719S) (Homo sapiens, UniProt P00533, G719S)
Method in brief: as §1

CDK4-cyclinD1 = biological target: T2, CDK4-cyclinD1 (Homo sapiens, UniProt P11802)
T2 construct: cyclinD1
Method in brief: as §1

PKAC-beta = biological target: T3, PKAC-beta (Homo sapiens, UniProt P22694)
T3 construct: gene PRKACB
Method in brief: as §1

MYO3A = MYO3A (Homo sapiens, UniProt Q8NEV4)
Method in brief: as §1

CLK1 = CLK1 (Homo sapiens, UniProt P49759)
Method in brief: as §1

TNNI3K = TNNI3K (Homo sapiens, UniProt Q59H18)
Method in brief: as §1

LIMK1 = LIMK1 (Homo sapiens, UniProt P53667)
LIMK1, sequence (P53667 whole entry): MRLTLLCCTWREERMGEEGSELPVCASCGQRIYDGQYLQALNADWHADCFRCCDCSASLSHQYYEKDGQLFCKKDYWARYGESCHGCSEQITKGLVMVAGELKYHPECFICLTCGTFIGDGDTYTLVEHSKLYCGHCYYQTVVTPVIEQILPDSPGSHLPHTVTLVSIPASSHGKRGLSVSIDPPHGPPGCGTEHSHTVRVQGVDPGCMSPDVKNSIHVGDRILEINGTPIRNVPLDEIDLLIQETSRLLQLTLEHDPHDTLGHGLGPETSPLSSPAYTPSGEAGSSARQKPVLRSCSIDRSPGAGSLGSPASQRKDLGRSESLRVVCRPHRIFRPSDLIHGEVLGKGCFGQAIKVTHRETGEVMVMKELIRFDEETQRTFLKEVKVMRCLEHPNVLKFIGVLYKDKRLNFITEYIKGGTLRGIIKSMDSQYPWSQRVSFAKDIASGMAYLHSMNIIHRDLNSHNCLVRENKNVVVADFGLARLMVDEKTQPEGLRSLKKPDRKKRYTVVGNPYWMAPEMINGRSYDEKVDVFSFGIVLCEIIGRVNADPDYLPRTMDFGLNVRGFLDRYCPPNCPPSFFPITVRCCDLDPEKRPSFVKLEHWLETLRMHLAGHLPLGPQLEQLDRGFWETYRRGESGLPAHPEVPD
Method in brief: as §1

EPHB2 = EPHB2 (Homo sapiens, UniProt P29323)
Method in brief: as §1

ERBB2 = ERBB2 (Homo sapiens, UniProt P04626)
Method in brief: as §1

YSK1 = biological target: T4, YSK1 (Homo sapiens, UniProt O00506)
T4 construct: gene STK25
Method in brief: as §1

RIPK5 = biological target: T5, RIPK5 (Homo sapiens, UniProt Q6XUX3)
T5 construct: gene DSTYK
T5 sequence (Q6XUX3 whole entry): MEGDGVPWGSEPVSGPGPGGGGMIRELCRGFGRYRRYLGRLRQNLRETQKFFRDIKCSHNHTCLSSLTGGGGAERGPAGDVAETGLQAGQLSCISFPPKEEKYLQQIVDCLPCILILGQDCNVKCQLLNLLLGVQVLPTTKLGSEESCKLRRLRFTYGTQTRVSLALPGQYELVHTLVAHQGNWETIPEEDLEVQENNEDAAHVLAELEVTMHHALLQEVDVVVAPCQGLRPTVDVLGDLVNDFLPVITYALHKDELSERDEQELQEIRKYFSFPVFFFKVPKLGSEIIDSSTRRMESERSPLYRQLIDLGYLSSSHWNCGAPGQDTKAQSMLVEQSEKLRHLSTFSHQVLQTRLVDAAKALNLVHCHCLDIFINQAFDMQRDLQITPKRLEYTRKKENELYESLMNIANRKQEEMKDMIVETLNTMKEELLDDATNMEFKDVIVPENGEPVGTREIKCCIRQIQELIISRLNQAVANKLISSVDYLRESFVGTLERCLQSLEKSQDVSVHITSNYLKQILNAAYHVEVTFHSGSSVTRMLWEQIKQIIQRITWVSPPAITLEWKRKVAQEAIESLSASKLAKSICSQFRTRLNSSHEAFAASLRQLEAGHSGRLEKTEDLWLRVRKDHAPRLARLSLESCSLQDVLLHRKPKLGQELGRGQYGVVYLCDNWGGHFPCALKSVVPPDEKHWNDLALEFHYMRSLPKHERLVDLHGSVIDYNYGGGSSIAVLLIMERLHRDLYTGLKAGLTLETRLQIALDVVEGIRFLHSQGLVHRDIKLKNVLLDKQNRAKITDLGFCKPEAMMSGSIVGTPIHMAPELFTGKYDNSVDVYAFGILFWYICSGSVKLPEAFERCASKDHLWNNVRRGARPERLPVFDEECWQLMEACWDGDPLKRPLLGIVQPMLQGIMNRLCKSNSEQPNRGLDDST
Method in brief: as §1

EPHA4 = EPHA4 (Homo sapiens, UniProt P54764)
Method in brief: as §1

MEK2 = biological target: T6, MEK2 (Homo sapiens, UniProt P36507)
T6 construct: gene MAP2K2
Method in brief: as §1

PRKCD = PRKCD (Homo sapiens, UniProt Q05655)
PRKCD, sequence (Q05655 whole entry): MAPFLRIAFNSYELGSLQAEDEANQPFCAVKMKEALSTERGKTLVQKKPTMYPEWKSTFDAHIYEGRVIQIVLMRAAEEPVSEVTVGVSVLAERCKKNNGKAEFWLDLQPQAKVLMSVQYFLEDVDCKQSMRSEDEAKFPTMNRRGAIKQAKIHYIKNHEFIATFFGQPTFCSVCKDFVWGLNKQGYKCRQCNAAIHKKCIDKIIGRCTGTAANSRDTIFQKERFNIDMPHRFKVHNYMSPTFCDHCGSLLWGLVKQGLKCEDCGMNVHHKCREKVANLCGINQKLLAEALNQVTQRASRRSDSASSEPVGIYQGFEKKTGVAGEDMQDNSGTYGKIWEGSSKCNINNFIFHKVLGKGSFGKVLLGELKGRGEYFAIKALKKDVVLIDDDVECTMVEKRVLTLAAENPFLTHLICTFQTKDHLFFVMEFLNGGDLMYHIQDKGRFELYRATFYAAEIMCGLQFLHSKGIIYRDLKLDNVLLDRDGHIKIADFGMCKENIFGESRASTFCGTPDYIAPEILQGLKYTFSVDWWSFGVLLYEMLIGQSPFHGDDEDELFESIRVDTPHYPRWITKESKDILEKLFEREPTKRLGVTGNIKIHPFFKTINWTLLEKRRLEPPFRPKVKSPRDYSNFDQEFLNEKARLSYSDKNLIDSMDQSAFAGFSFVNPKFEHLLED
Method in brief: as §1

BRSK2 = BRSK2 (Homo sapiens, UniProt Q8IWQ3)
BRSK2, sequence (Q8IWQ3 whole entry): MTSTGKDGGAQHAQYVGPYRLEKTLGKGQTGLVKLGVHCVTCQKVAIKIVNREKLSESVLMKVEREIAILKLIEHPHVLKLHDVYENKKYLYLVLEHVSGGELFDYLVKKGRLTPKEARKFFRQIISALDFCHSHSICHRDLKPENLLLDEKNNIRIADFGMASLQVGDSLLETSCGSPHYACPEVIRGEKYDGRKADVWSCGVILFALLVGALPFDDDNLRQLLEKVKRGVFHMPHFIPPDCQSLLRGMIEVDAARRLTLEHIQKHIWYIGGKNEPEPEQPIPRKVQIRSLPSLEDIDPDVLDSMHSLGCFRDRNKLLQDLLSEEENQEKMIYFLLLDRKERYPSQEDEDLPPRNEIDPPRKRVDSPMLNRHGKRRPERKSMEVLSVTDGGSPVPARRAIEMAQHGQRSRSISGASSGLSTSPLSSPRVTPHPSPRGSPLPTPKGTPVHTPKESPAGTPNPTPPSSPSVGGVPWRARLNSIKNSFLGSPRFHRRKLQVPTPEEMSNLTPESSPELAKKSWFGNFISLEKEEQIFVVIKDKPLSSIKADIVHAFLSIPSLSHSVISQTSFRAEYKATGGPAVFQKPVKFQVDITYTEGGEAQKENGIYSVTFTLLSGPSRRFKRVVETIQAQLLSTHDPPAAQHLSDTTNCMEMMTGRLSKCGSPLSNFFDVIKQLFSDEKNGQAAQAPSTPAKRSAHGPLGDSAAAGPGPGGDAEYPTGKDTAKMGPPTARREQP
Method in brief: as §1

BTK = BTK (Homo sapiens, UniProt Q06187)
Method in brief: as §1

MYLK4 = MYLK4 (Homo sapiens, UniProt Q86YV6)
MYLK4, sequence (Q86YV6 whole entry): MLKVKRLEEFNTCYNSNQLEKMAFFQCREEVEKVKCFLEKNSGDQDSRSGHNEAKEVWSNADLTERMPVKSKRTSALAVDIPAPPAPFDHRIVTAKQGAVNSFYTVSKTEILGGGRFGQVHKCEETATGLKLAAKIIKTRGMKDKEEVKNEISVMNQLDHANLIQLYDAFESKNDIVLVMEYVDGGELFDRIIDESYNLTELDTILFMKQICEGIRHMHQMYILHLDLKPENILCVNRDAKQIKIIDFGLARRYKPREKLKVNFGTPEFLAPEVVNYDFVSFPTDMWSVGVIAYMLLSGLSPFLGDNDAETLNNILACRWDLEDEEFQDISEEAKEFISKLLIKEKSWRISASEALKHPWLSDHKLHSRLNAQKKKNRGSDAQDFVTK
Method in brief: as §1

PCTK1 = biological target: T7, PCTK1 (Homo sapiens, UniProt Q00536)
T7 construct: gene CDK16
Method in brief: as §1

T1 sequence (P42679 whole entry): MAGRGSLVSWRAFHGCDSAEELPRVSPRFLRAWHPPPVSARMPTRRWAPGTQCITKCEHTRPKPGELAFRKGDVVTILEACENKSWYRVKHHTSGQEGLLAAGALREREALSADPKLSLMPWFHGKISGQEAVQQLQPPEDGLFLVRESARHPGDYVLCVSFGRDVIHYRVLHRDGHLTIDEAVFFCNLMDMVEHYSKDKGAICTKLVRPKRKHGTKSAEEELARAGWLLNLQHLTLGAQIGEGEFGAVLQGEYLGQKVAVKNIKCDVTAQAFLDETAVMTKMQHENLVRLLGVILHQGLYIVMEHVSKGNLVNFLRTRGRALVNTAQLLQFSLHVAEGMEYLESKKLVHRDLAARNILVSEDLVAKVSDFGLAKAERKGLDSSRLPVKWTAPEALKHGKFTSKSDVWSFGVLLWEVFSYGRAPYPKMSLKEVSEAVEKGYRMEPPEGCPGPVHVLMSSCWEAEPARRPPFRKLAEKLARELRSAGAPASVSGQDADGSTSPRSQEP

SMILES: CNS(=O)(=O)c1ccc(N(C)C)c(Nc2ncnc3cc(OC)c(OC)cc23)c1 [compound 7, 3-((6,7-dimethoxyquinazolin-4-yl)amino)-4-(dimethylamino)-N-methylbenzenesulfonamide]
- inhibition at 1 µM (CTK): 1%
- inhibition at 1 µM (PLK2): 13%
- inhibition at 1 µM (MKNK1): 10%
- inhibition at 1 µM (TESK1): 0%
- inhibition at 1 µM (SIK2): 69%
- inhibition at 1 µM (NEK5): 25%
- inhibition at 1 µM (PHKG1): 0%
- inhibition at 1 µM (EGFR(G719S)): 0%
- inhibition at 1 µM (CDK4-cyclinD1): 20%
- inhibition at 1 µM (PKAC-beta): 0%
- inhibition at 1 µM (MYO3A): 0%
- inhibition at 1 µM (CLK1): 8%
- inhibition at 1 µM (TNNI3K): 62%
- inhibition at 1 µM (LIMK1): 0%
- inhibition at 1 µM (EPHB2): 0%
- inhibition at 1 µM (ERBB2): 0%
- inhibition at 1 µM (YSK1): 5%
- inhibition at 1 µM (RIPK5): 49%
- inhibition at 1 µM (EPHA4): 0%
- inhibition at 1 µM (MEK2): 25%
- inhibition at 1 µM (PRKCD): 24%
- inhibition at 1 µM (BRSK2): 27%
- inhibition at 1 µM (BTK): 54%
- inhibition at 1 µM (MYLK4): 0%
- inhibition at 1 µM (PCTK1): 13%
